Reference: patent US7902204B2 (priority 2003, dated 2011)

Test system: HIV-1 single-round infectious reporter virus
Test: Single-round infectious HIV-1 luciferase reporter virus infection of HeLa CD4 CCR5 cells
Assay type: cell-based
Conditions: Human immunodeficiency virus 1, HeLa-CD4/CCR5, 72 h, read-out: EC50 Group from Table 1
Experimental: • Virus production—Human embryonic Kidney cell line, 293, propagated in Dulbecco's Modified Eagle Medium (Life Technologies, Gaithersburg, Md.) containing 10% fetal Bovine serum (FBS, Sigma, St. Louis, Mo.). • Virus infection—Human epithelial cell line, HeLa, expressing the HIV-1 receptors CD4 and CCR5 was propagated in Dulbecco's Modified Eagle Medium (Life Technologies, Gaithersburg, Md.) containing 10% fetal Bovine serum (FBS, Sigma, St. Louis, Mo.) and supplemented with 0.2 mg/mL Geneticin (Life Technologies, Gaithersburg, Md.) and 0.4 mg/mL Zeocin (Invitrogen, Carlsbad, Calif.). Virus-Single-round infectious reporter virus was produced by co-transfecting human embryonic Kidney 293 cells with an HIV-1 envelope DNA expression vector and a proviral cDNA containing an envelope deletion mutation and the luciferase reporter gene inserted in place of HIV-1 nef sequences (Chen et al, Ref 41). Transfections were performed using lipofectAMINE PLUS reagent as described by the manufacturer (Life Technologies, Gaithersburg, Md.). Experiment • 1. Compound was added to HeLa CD4 CCR5 cells plated in 96 well plates at a cell density of 1×10^4 cells per well in 100 μl Dulbecco's Modified Eagle Medium containing 10% fetal Bovine serum at a concentration of <20 μM. • 2. 100 μl of single-round infectious reporter virus in Dulbecco's Modified Eagle Medium was then added to the plated cells and compound at an approximate multiplicity of infection (MOI) of 0.01, resulting in a final volume of 200 μl per well and a final compound concentration of <10 μM. • 3. Samples were harvested 72 h after infection. • 4. Viral infection was monitored by measuring luciferase expression from viral DNA in the infected cells using a luciferase reporter gene assay kit (Roche Molecular Biochemicals, Indianapolis, Ind.). Infected cell supernatants were removed and 50 μl of Dulbecco's Modified Eagle Medium (without phenol red) and 50 μl of luciferase assay reagent reconstituted as described by the manufacturer (Roche Molecular Biochemicals, Indianapolis, Ind.) was added per well. Luciferase activity was then quantified by measuring luminescence using a Wallac microbeta scintillation counter. • 5. The percent inhibition for each compound was calculated by quantifying the level of luciferase expression in cells infected in the presence of each compound as a percentage of that observed for cells infected in the absence of compound and subtracting such a determined value from 100. • 6. An EC50 provides a method for comparing the antiviral potency of the compounds of this invention. The effective concentration for fifty percent inhibition (EC50) was calculated with the Microsoft Excel Xlfit curve fitting software. For each compound, curves were generated from percent inhibition calculated at 10 different concentrations by using a four paramenter logistic model (model 205). Table 1 is the key for the data in Tables 2-4.

Row | Structure (SMILES) | EC50 [nM]
1 | O=C(C(=O)N1CCN(c2nccc3ccccc23)CC1)c1c[nH]c2c(Cl)ncnc12 [Example 30, 1-(4-Chloro-5H-pyrrolo[3,2-d]pyrimidin-7-yl)-2-(4-(isoquinolin-1-yl)piperazin-1-yl)ethane-1,2-dione] | < 1000
2 | O=C(C(=O)N1CCN(c2nccc3ccccc23)CC1)c1c[nH]c2c(-c3cnccn3)ncnc12 [Example 31, 1-(4-(Isoquinolin-1-yl)piperazin-1-yl)-2-(4-(pyrazin-2-yl)-5H-pyrrolo[3,2-d]pyrimidin-7-yl)ethane-1,2-dione] | < 1000
3 | O=C(C(=O)N1CCN(c2nccc3ccccc23)CC1)c1c[nH]c2c(-n3cccn3)ncnc12 [Example 32, 1-(4-(1H-Pyrazol-1-yl)-5H-pyrrolo[3,2-d]pyrimidin-7-yl)-2-(4-(isoquinolin-1-yl)piperazin-1-yl)ethane-1,2-dione] | < 1000
4 | N#CC(=C1CCN(C(=O)C(=O)c2c[nH]c3c(Cl)ncnc23)CC1)c1ccccc1 [Example 33, 2-(1-(2-(4-Chloro-5H-pyrrolo[3,2-d]pyrimidin-7-yl)-2-oxoacetyl)piperidin-4-ylidene)-2-phenylacetonitrile] | < 1000
5 | N#CC(=C1CCN(C(=O)C(=O)c2c[nH]c3c(-c4cncnc4)ncnc23)CC1)c1ccccc1 [Example 34, 2-(1-(2-Oxo-2-(4-(pyrimidin-5-yl)-5H-pyrrolo[3,2-d]pyrimidin-7-yl)acetyl)piperidin-4-ylidene)-2-phenylacetonitrile] | < 1000
6 | O=C(C(=O)N1CCC(=C(c2ccccc2)c2nnco2)CC1)c1c[nH]c2c(Cl)ncnc12 [Example 35] | < 1000
7 | O=C(C(=O)N1CCC(=C(c2ccccc2)c2nnco2)CC1)c1c[nH]c2c(-n3cncn3)ncnc12 [Example 36, 1-(4-((1,3,4-Oxadiazol-2-yl)(phenyl)methylene)piperidin-1-yl) -2-(4-(1H-1,2,4-triazol-1-yl)-5H-pyrrolo[3,2-d]pyrimidin-7-yl)ethane-1,2-dione] | < 1000
8 | O=C(C(=O)N1CCC(=C(c2ccccc2)c2nnco2)CC1)c1c[nH]c2c(-n3cccn3)ncnc12 [Example 37, 1-(4-((1,3,4-Oxadiazol-2-yl)(phenyl)methylene)piperidin-1-yl) -2-(4-(1H-pyrazol-1-yl)-5H-pyrrolo[3,2-d]pyrimidin-7-yl)ethane-1,2-dione] | < 1000
9 | N#CC(=C1CCN(C(=O)C(=O)c2c[nH]c3c(-n4cccn4)ncnc23)CC1)c1ccccn1 [Example 38, 2-(1-(2-(4-(1H-pyrazol-1-yl)-5H-pyrrolo[3,2-d]pyrimidin-7-yl)-2-oxoacetyl)piperidin-4-ylidene)-2-(pyridin-2-yl)acetonitrile] | < 1000
10 | O=C(C(=O)N1CCN(C(=O)c2ccccc2)CC1)c1c[nH]c2c(-n3ccc(-c4ccccn4)n3)ncnc12 [Example 39, 1-(4-Benzoylpiperazin-1-yl)-2-(4-(3-(pyridin-2-yl) -1H-pyrazol-1-yl)-5H-pyrrolo[3,2-d]pyrimidin-7-yl)ethane-1,2-dione] | < 1000
11 | O=C(C(=O)N1CCN(c2ncnc3ccccc23)CC1)c1c[nH]c2c(-n3cccn3)ncnc12 [Example 40, 1-(4-(1H-Pyrazol-1-yl)-5H-pyrrolo[3,2-d]pyrimidin-7-yl)-2-(4-(quinazolin-4-yl)piperazin-1-yl)ethane-1,2-dione] | < 1000
12 | O=C(C(=O)N1CCN(C(=O)c2ccccc2)CC1)c1c[nH]c2c(N3CCN(C(=O)c4cc[nH]n4)CC3)ncnc12 [Example 41, 1-(4-(4-(1H-Pyrazole-3-carbonyl)piperazin-1-yl)-5H -pyrrolo[3,2-d]pyrimidin-7-yl)-2-(4-benzoylpiperazin-1-yl)ethane-1,2-dione] | < 1000
13 | N#CC(=C1CCN(C(=O)C(=O)c2c[nH]c3c(-n4cccn4)ncnc23)CC1)c1ccccc1 [Example 42, 2-(1-(2-(4-(1H-Pyrazol-1-yl)-5H-pyrrolo[3,2-d]pyrimidin-7-yl)-2-oxoacetyl)piperidin-4-ylidene)-2-phenylacetonitrile] | < 1000
14 | N#CC(=C1CCN(C(=O)C(=O)c2c[nH]c3c(-c4cc[nH]n4)ncnc23)CC1)c1ccccc1 [Example 43, 2-(1-(2-(4-(1H-pyrazol-3-yl)-5H-pyrrolo[3,2-d]pyrimidin-7-yl)-2-oxoacetyl)piperidin-4-ylidene)-2-phenylacetonitrile] | < 1000
